We go through 1 molecule from article PMC12547752, “Silodosin as a Novel Inhibitor of Acetylcholinesterase, Butyrylcholinesterase, and BETA-Secretase 1: In Vitro and In Silico Studies” (ACS Omega, 2025).

In this assay the target is T1, butyrylcholinesterase (BuChE) (Equus caballus, UniProt P81908).
T1 construct: gene BCHE
Kind of assay: Ellman colorimetric assay with equine serum BuChE, concentration-response. The assay is classed as biochemical.

Molecules are shown by their SMILES.

T1 sequence (P81908 whole entry): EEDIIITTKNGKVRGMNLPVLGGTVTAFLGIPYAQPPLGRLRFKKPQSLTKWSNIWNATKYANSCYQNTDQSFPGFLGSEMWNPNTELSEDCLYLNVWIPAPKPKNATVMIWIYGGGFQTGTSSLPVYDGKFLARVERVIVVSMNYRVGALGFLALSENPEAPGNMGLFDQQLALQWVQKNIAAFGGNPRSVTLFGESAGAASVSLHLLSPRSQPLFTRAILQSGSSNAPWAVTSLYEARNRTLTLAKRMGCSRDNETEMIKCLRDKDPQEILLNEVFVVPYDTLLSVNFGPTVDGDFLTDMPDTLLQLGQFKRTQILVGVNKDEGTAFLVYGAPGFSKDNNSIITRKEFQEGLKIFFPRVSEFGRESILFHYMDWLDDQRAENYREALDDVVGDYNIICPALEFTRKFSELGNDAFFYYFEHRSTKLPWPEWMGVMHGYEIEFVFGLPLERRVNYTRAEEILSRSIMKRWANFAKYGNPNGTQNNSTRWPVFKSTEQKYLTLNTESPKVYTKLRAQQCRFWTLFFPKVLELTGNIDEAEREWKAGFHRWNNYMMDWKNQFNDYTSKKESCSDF

As a reminder, the IC50 is the point on the concentration scale where inhibition reaches its midpoint. For the molecule `C[C@H](Cc1cc2c(c(C(N)=O)c1)N(CCCO)CC2)NCCOc1ccccc1OCC(F)(F)F` [silodosin], inhibition was half-maximal at 3.02 ± 0.05 µM (IC50).
